{"source": "ChEMBL document CHEMBL5729525", "about": "“Therapeutic compounds and methods of use thereof” (2023)", "target": "Protein cereblon (Homo sapiens, UniProt Q96SW2)", "sequence (Q96SW2 whole entry)": "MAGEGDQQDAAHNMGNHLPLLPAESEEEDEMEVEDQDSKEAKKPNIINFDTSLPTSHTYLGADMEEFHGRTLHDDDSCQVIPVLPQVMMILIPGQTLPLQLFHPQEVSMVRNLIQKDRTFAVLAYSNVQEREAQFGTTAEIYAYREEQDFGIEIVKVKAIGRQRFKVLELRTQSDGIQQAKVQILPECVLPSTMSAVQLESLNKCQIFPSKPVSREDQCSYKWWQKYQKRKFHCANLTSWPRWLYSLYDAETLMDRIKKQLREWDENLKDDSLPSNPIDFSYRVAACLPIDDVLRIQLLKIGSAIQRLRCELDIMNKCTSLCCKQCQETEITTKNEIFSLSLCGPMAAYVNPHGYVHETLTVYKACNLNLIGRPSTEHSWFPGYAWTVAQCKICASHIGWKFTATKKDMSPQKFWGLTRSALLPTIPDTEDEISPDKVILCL", "assay": "Fluorescence Binding Assay: Fluorescence quenching end point measurements were performed in black polystyrene 384-plates on Tecan Safire monochromator reader with the following settings: excitation 280 nm; excitation bandwidth 10.0 nm; emission collection 340 nm; emission bandwidth 20.0 nm; high sensitivity flash mode; integration time 40 μS; delay 0 […]. All measurements were done in duplicates; GraphPad Prism 5.03 was used for data evaluation, curve fitting, plotting and determination of IC50 values.Serial dilutions of each tested ligands were mixed with truncated CRBN (319-427) to a final volume of 25 μL in the assay buffer (20 mM sodium phosphate buffer, pH 6.5, with 150 mM sodium chloride). The final concentration of CRBN in all assay will be 5-10 μM with DMSO level at 4%. A control lanes were prepared with only tested ligands without the addition of CRBN, top up with assay buffer to 25 μL. Plates were incubated for 5 minutes and analyzed using the monochromator plate reader.", "note": "pIC50: −log10 of the molar value."}
{"smiles": "Nc1ccc(-c2ccc3c(c2)CC(=O)N3)cn1", "values": [{"measurement": "pIC50", "value": "< 3.52"}]}
